Results reported in patent publication US8765773B2, “Substituted hydroxamic acids and uses thereof” (Millennium Pharmaceuticals, Inc., priority 2010, dated 2014).

Target: T1, purified human HDAC6 (Homo sapiens, UniProt Q9UBN7)
T1 construct: purchased BPS Bioscience 5006
T1 sequence (Q9UBN7 1-1215): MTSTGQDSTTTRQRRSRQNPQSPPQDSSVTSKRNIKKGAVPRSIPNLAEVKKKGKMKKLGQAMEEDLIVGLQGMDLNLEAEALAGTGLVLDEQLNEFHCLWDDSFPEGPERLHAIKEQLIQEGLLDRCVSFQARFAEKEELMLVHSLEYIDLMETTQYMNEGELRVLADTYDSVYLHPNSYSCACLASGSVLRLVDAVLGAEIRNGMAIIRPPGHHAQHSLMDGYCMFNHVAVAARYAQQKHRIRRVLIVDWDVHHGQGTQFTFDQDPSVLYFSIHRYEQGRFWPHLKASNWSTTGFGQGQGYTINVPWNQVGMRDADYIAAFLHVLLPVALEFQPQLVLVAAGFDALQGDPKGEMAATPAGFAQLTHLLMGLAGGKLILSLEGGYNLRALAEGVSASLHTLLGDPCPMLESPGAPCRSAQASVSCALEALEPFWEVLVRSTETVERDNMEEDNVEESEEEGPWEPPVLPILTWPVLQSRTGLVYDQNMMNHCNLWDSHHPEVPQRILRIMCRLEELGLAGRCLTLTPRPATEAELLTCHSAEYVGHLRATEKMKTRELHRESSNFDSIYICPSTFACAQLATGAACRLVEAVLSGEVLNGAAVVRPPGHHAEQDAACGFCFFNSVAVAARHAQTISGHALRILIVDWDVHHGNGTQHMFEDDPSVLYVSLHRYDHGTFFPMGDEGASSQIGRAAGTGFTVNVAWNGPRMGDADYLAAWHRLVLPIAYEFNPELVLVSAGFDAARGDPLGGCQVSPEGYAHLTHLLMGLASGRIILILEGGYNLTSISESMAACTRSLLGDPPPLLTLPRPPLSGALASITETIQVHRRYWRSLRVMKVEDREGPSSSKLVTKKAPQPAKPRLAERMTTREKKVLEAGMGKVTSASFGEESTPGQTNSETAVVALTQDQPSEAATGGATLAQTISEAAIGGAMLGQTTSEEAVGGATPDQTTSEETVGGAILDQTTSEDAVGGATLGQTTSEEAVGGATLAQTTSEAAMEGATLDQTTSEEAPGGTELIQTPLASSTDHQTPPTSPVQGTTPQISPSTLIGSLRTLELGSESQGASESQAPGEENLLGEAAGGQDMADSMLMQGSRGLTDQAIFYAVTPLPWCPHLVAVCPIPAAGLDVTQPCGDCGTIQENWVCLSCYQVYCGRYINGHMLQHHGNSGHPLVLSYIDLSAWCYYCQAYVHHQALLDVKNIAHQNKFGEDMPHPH
Assay: HDAC6 Enzyme Assay
Assay type: biochemical
Details: read-out: Percent Inhibition; for inhibition at 0.412 µM: compound concentration 0.412 μM; for inhibition at 0.37 µM: compound concentration 0.37 μM
Method in brief: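 Purified human HDAC6 incubated 1 h at 30° C with Ac-Arg-Gly-Lys(Ac)-AMC peptide plus compound or DMSO; stopped with trichostatin A. Deacetylated product trypsin-digested, released AMC read by fluorescence (Ex 340/Em 460 nm). Percent inhibition at one concentration or IC50 from curves relative to DMSO controls.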

| inhibition at 0.412 µM | inhibition at 0.37 µM | SMILES |
| --- | --- | --- |
|  | 90.6% | CCC(C)c1nc2cc(C(=O)NO)ccc2c(=O)n1Cc1ccc(C(F)(F)F)cc1 (stereo not shown) [Compound I-100, 2-sec-butyl-N-hydroxy-4-oxo-3-[4-(trifluoromethyl)benzyl]-3,4-dihydroquinazoline-7-carboxamide] |
| 95.7% |  | COc1cc(OC)cc(OCCn2ccc3ccc(C(=O)NO)cc3c2=O)c1 [Compound I-101, 2-[2-(3,5-dimethoxyphenoxy)ethyl]-N-hydroxy-1-oxo-1,2-dihydroisoquinoline-7-carboxamide] |
| 94.3% |  | O=C(NO)c1ccc2ccn(Cc3c(F)cc(F)cc3F)c(=O)c2c1 [Compound I-102, N-hydroxy-1-oxo-2-(2,4,6-trifluorobenzyl)-1,2-dihydroisoquinoline-7-carboxamide] |
|  | 100% | O=C(NO)c1ccc2ccn(CCC(c3ccc(Cl)cc3)C3CCNCC3)c(=O)c2c1 (stereo not shown) [Compound I-103, 2-[3-(4-chlorophenyl)-3-piperidin-4-ylpropyl]-N-hydroxy-1-oxo-1,2-dihydroisoquinoline-7-carboxamide] |
| 82.5% |  | O=C(NO)c1ccc2ncn(CCc3ccccn3)c(=O)c2c1 [Compound I-104, N-hydroxy-4-oxo-3-(2-pyridin-2-ylethyl)-3,4-dihydroquinazoline-6-carboxamide] |
| 86.5% |  | O=C(NO)c1ccc2ccn(C3CCCC3)c(=O)c2c1 [Compound I-105, 2-cyclopentyl-N-hydroxy-1-oxo-1,2-dihydroisoquinoline-7-carboxamide] |
|  | 78.5% | O=C(NO)c1ccc2c(=O)n(Cc3ccc(C(F)(F)F)cc3)c(C3CCCC3)nc2c1 [Compound I-106, 2-cyclopentyl-N-hydroxy-4-oxo-3-[4-(trifluoromethyl)benzyl]-3,4-dihydroquinazoline-7-carboxamide] |
| 85.2% |  | Cc1cccc(OCc2nc3cc(C(=O)NO)ccc3c(=O)[nH]2)c1 [Compound I-107, N-hydroxy-2-[(3-methylphenoxy)methyl]-4-oxo-3,4-dihydroquinazoline-7-carboxamide] |
| 91.4% |  | O=C(NO)c1ccc2ccn(CCNc3cccc(-n4cccn4)c3)c(=O)c2c1 [Compound I-108, N-hydroxy-1-oxo-2-(2-{[3-(1H-pyrazol-1-yl)phenyl]amino}ethyl)-1,2-dihydroisoquinoline-7-carboxamide] |
| 95.9% |  | O=C(NO)c1ccc2ccn(Cc3cccc(F)c3)c(=O)c2c1 [Compound I-109, 2-(3-fluorobenzyl)-N-hydroxy-1-oxo-1,2-dihydroisoquinoline-7-carboxamide] |
| 76% |  | O=C(NO)c1ccc2c(=O)[nH]c(COc3cccc(C(F)(F)F)c3)nc2c1 [Compound I-110, N-hydroxy-4-oxo-2-{[3-(trifluoromethyl)phenoxy]methyl}-3,4-dihydroquinazoline-7-carboxamide] |
| 93.5% |  | O=C(NO)c1ccc2ncn(Cc3cccc(F)c3)c(=O)c2c1 [Compound I-111, 3-(3-fluorobenzyl)-N-hydroxy-4-oxo-3,4-dihydroquinazoline-6-carboxamide] |
| 95.2% |  | CC1(C)CCC(C)(C)c2cc(Cn3cnc4ccc(C(=O)NO)cc4c3=O)ccc21 [Compound I-112, N-hydroxy-4-oxo-3-[(5,5,8,8-tetramethyl-5,6,7,8-tetrahydronaphthalen-2-yl)methyl]-3,4-dihydroquinazoline-6-carboxamide] |
| 95.6% |  | O=C(NO)c1ccc2ccn(CCNc3ccc(Cl)cc3)c(=O)c2c1 [Compound I-113, 2-{2-[(4-chlorophenyl)amino]ethyl}-N-hydroxy-1-oxo-1,2-dihydroisoquinoline-7-carboxamide] |
|  | 93.8% | O=C(NO)c1ccc2ncn(Cc3cccc(N4CCOCC4)c3)c(=O)c2c1 [Compound I-114, N-hydroxy-3-(3-morpholin-4-ylbenzyl)-4-oxo-3,4-dihydroquinazoline-6-carboxamide] |
| 90.2% |  | O=C(NO)c1ccc2ncn(Cc3ccc(F)cc3)c(=O)c2c1 [Compound I-115, 3-(4-fluorobenzyl)-N-hydroxy-4-oxo-3,4-dihydroquinazoline-6-carboxamide] |
| 80.2% |  | O=C(NO)c1ccc2ccn(CCCOc3ccc(OCc4ccccc4)cc3)c(=O)c2c1 [Compound I-116, 2-{3-[4-(benzyloxy)phenoxy]propyl}-N-hydroxy-1-oxo-1,2-dihydroisoquinoline-7-carboxamide] |
| 93.3% |  | O=C(NO)c1ccc2ccn(C3CCCCCC3)c(=O)c2c1 [Compound I-117, 2-cycloheptyl-N-hydroxy-1-oxo-1,2-dihydroisoquinoline-7-carboxamide] |

More lines, now with the values behind:

| SMILES | inhibition at 0.412 µM | inhibition at 0.37 µM |
| --- | --- | --- |
| CC(C)(C)c1ccc(Cn2cnc3cc(C(=O)NO)ccc3c2=O)cc1 [Compound I-87, 3-(4-tert-butylbenzyl)-N-hydroxy-4-oxo-3,4-dihydroquinazoline-7-carboxamide] | 91% |  |
| CC1(C)CCC(C)(C)c2cc(Cn3ccc4ccc(C(=O)NO)cc4c3=O)ccc21 [Compound I-88, N-hydroxy-1-oxo-2-[(5,5,8,8-tetramethyl-5,6,7,8-tetrahydronaphthalen-2-yl)methyl]-1,2-dihydroisoquinoline-7-carboxamide] | 90% |  |
| CC(C)(C)OC(=O)N(CCCn1ccc2ccc(C(=O)NO)cc2c1=O)c1ccncc1 [Compound I-89, tert-butyl {3-[7-[(hydroxyamino)carbonyl]-1-oxoisoquinolin-2(1H)-yl]propyl}pyridin-4-ylcarbamate] | 95.6% |  |
| O=C(NO)c1ccc2ccn(CCCOc3ccc(-c4csnn4)cc3)c(=O)c2c1 [Compound I-90, N-hydroxy-1-oxo-2-{3-[4-(1,2,3-thiadiazol-4-yl)phenoxy]propyl}-1,2-dihydroisoquinoline-7-carboxamide] | 97.7% |  |
| O=C(NO)c1ccc2ccn(CCOc3cc(C(F)(F)F)cc(C(F)(F)F)c3)c(=O)c2c1 [Compound I-91, 2-{2-[3,5-bis(trifluoromethyl)phenoxy]ethyl}-N-hydroxy-1-oxo-1,2-dihydroisoquinoline-7-carboxamide] | 86.9% |  |
| O=C(NO)c1ccc2c(=O)[nH]c(CNCc3ccc(Cl)cc3)nc2c1 [Compound I-92, 2-{[(4-chlorobenzyl)amino]methyl}-N-hydroxy-4-oxo-3,4-dihydroquinazoline-7-carboxamide] | 90.9% |  |
| CC(C)(C)OC(=O)N1CCC(C)(C(=O)Nc2cccc(Cn3ccc4ccc(C(=O)NO)cc4c3=O)c2)CC1 [Compound I-93, tert-butyl 4-{[(3-{[7-[(hydroxyamino)carbonyl]-1-oxoisoquinolin-2(1H)-yl]methyl}phenyl)amino]carbonyl}-4-methylpiperidine-1-carboxylate] | 90.1% |  |
| CCCCC(CC)Cn1ccc2ccc(C(=O)NO)cc2c1=O (stereo not shown) [Compound I-94, 2-(2-ethylhexyl)-N-hydroxy-1-oxo-1,2-dihydroisoquinoline-7-carboxamide] | 93.5% |  |
| O=C(NO)c1ccc2ccn(CCCc3c[nH]c4ccccc34)c(=O)c2c1 [Compound I-95, N-hydroxy-2-[3-(1H-indol-3-yl)propyl]-1-oxo-1,2-dihydroisoquinoline-7-carboxamide] | 98.1% |  |
| O=C(NO)c1ccc2ccn(CC(c3ccccc3)C3CCCCC3)c(=O)c2c1 (stereo not shown) [Compound I-96, 2-(2-cyclohexyl-2-phenylethyl)-N-hydroxy-1-oxo-1,2-dihydroisoquinoline-7-carboxamide] | 80.9% |  |
| COc1ccc(NCCn2ccc3ccc(C(=O)NO)cc3c2=O)cc1 [Compound I-97, N-hydroxy-2-{2-[(4-methoxyphenyl)amino]ethyl}-1-oxo-1,2-dihydroisoquinoline-7-carboxamide] | 79.1% |  |
| O=C(NO)c1ccc2ccn(Cc3cccc(Oc4ccc(F)cc4)c3)c(=O)c2c1 [Compound I-98, 2-[3-(4-fluorophenoxy)benzyl]-N-hydroxy-1-oxo-1,2-dihydroisoquinoline-7-carboxamide] | 91% |  |
| O=C(NO)c1ccc2ccn(CCOc3cc(Cl)cc(Cl)c3)c(=O)c2c1 [Compound I-99, 2-[2-(3,5-dichlorophenoxy)ethyl]-N-hydroxy-1-oxo-1,2-dihydroisoquinoline-7-carboxamide] | 93% |  |
